Results from US8546348B2, “Upregulation of opioid receptors for management” (The Board of Regents of the University of Texas System, priority 2003, dated 2013).
Values joined by “and” are separate entries in the source; they are usually repeats but may differ in a detail not shown here. Equal entries are not always repeated. Where two headings read alike, the source gives them in different places.

Columns and labels:
[1] = tested on: high-threshold voltage-dependent Ca^2+ channels in DRG neurons; assay: Perforated patch recording of DAMGO block of Ba2+ currents in cultured DRG neurons; assay type: cell-based, rat; details: for IC50: read-out: apparent affinity for DAMGO inhibition (IC50)
Protocol: Cells were superfused (2 ml/min) at 23-24° C. with external solution containing 130 mM tetraethylammonium (“TEA”) chloride, 5 mM CsCl, 1.5 mM BaCl2, 1 mM MgCl2, 10 mM Hepes, and 10 mM glucose (pH 7.2, adjusted with TEA-OH; osmolarity, 300 mosM). Patch electrodes (resistance, 2.2-3.5 MΩ) were filled with internal solution containing 100 mM CsMeSO3, 40 mM CsCl, 10 mM Hepes, and 300 μg/ml amphotericin B (pH=7.3 adjusted with CsOH, 320 mosM). The currents were filtered at 2-5 kHz and sampled at 100 μs per point. [D-Ala^2,N-MePhe^4,Gly^5-ol]enkephalin (“DAMGO”) was pressure delivered to the recorded cells through a drug applicator (8).
All data were expressed as mean±SEM. Paw withdrawal latencies obtained from different rats were averaged. Changes before and after morphine treatment within one rat group were analyzed with one-way ANOVA followed by post hoc Newman-Keuls analysis. Antinociceptive responses were expressed as maximum possible effect (“MPE”) by using the relation MPE=(postdrug PWL−baseline PWL)/(cutoff PWL−baseline PWL)×100. Dose-response curves were plotted as MPE vs. dose and fitted with the logistic equation. The doses estimated to produce 50% MPE, A50, and 95% confidence intervals were determined. The dose-response curves for DAMGO in current measurements were fitted with the Hill equation, i.e., response=(max−min)×[IC50/(IC50^n+dose^n)]+min, where max and min are maximal and minimal responses, IC50 is the dose for 50% of the block, and n is the Hill coefficient. The 95% confidence band analysis was used to evaluate the significance of the change in the IC50 and maximal block. To assess the significance of changes between two means, the Student's t test was used. A p<0.05 was considered significant.
It is well established that μ-opioids inhibit high-threshold voltage-dependent Ca^2+ currents in DRG neurons. […] Seven days after the infection, perforated patch whole-cell recordings were performed on the cells. External Ca^2+ was replaced by Ba^2+ to avoid rapid rundown of current responses.

[2] = tested on: spared nerve injury (SNI) rats; assay: Mechanical allodynia (von Frey) in SNI rats treated with rAAV-δOR, intrathecal deltorphin or morphine; assay type: in vivo, rat
Protocol: Similar method as described before was used to induce inflammation To produce the nerve-injury in the rat paw, spared nerve injury (SNI) in rats was generated by transecting the sural and common peroneal sciatic nerves in the left rat leg while leaving the tibal nerve intact. To induce inflammation in the trigeminal nerve innervated areas, rats were lightly anesthetized with pentobarbital. CFA (10-50 μl) was injected into the rat temporomandibular joint (TMJ) 3-4 weeks after infection of rAAV-dOR. Behavioral experiments were performed 5-14 days after the CFA injection. To induce spare nerve injury in the trigeminal nerve, the infraorbital nerve branch of the maxillary nerve was ligated and the ophthalmic and mandibular nerves were left intact.
δ-opioid receptor expression was enhanced in dorsal root ganglia (DRGs) by injecting rAAV-dOR into the ganglion or into the sciatic nerve or by injecting dOR-FLAG DNA intrathecally. The δ-OR receptor expression was enhanced in the trigeminal ganglon by injecting rAAV-dOR into the trigeminal ganglion or into the maxillary nerve.
Three to four weeks later, the effects of morphine or other analgesic drugs on mechanical allodynia in SNI rats were determined behaviorally. Rat hindpaw withdrawal (PW) thresholds in response to stimulation of Von Frey filaments were measured. Each test consisted of applications of a series of von Frey filaments (ranging from 0.4 to 15.0 g) to the lateral plantar surface of the tested paw until it withdrew or for a maximum of 60 s. To avoid injury during tests, the cutoff strength of the von Frey filament was 15 g. The up and down method described by Chaplan et al. (12) was used to determine the PW threshold. Mechanical threshold or the maximum possible effect (MPE), i.e., ((test−min)/(max−min)]×100%, was used to calculate morphine mechanical analgesic effects.

[3] = tested on: injured rats (sciatic nerve ligation); details: Kabli and Cahill; cited from earlier work
[4] = tested on: rats (thermal nociceptive responses); assay: Paw withdrawal latency to radiant heat, s.c. morphine, rats with rAAV injected into L4-L5 ganglia; assay type: in vivo, rat; details: 4 mg/kg morphine, non-CFA rats
[5] = tested on: rats (inflammatory pain, CFA); assay: Morphine antinociception (MPE, radiant heat) in CFA rats after DRG or sciatic nerve injection of rAAV; assay type: in vivo, rat; details: s.c. morphine, rAAV injected into DRGs
[6] = tested on: rats (thermal hyperalgesia, CFA); assay: Paw withdrawal latency to radiant heat, intrathecal morphine, rats with rAAV injected into the sciatic nerve; details: rat, in vivo
[7] = tested on: spared nerve injury (SNI) rats; assay: Mechanical allodynia (von Frey) in spared nerve injury rats, intrathecal morphine, rAAV-μOR; assay type: in vivo, rat; details: intrathecal 1-10 μg, SNI rats without rAAV

## C[C@@H](NC(=O)[C@@H](N)Cc1ccc(O)cc1)C(=O)NCC(=O)N(C)[C@@H](Cc1ccccc1)C(=O)NCCO [DAMGO, [D-Ala^2,N-MePhe^4,Gly^5-ol]enkephalin]
[1]; rAAV-EGFP cells
  IC50: 530 ± 30 nM
[1]; rAAV-EGFP-treated cells
  percentage of cells responded to DAMGO inhibition: 54.5%
[1]; rAAV-μOR cells, Hill fit
  maximal block of Ba2+ currents: 31.63% and 31.63±0.03%
[1]; rAAV-μOR cells
  IC50: 170 ± 60 nM
[1]; rAAV-μOR-treated DRG neurons
  percentage of cells responded to DAMGO inhibition: 89.2%
[1]; untreated cells
  percentage of cells responded to DAMGO inhibition: 57.1%
  IC50: 640 ± 190 nM

## CC(C)[C@H](NC(=O)[C@H](CCC(=O)O)NC(=O)[C@H](Cc1ccccc1)NC(=O)[C@@H](C)NC(=O)[C@@H](N)Cc1ccc(O)cc1)C(=O)N[C@H](C(=O)NCC(=O)O)C(C)C [deltorphin]
[2]; SNI rats
  reduction of allodynic responses: rather ineffective
[2]; SNI rats, listed as Deltorphin
  reduction of allodynic responses: ineffective
[2]; rAAV-δOR treated SNI rats
  reduction of allodynic responses: became effective
[3]
  time for which the drug is effective in reducing allodynic responses: 21 days

## CN1CC[C@]23c4c5ccc(O)c4O[C@H]2[C@@H](O)C=C[C@H]3[C@H]1C5 [morphine]
[4]
  time at which antinociceptive effects reached a maximum: 30 to 40 min
  time in which antinociceptive effects dissipated: 80 to 90 min
[5]
  time at which MPEs peaked: 30 to 40 min
  time within which MPEs dissipated: 100 to 120 min and 100 min
[6]
  time after which the effect dissipated: 50 min
  time at which MPE peaked: 15 to 20 min
[7]
  relief of mechanical allodynia: not effective
[3]
  time for which the drug is effective in reducing allodynic responses: 14 days
